Laboratory results: patent US8778881B2 (priority 2004, dated 2014)
Where two headings read alike, the source gives them in different places. Bridge positions count the residues as written; N and C are the ends. Square brackets hold non-standard residues; d marks the D form. Peptide text beside a SMILES is read from it. * marks the point of attachment. Ala(4-thiazolyl) = N[C@@H](Cc1cscn1)C(=O)O; Dab(iPr) = CC(C)NCC[C@H](N)C(=O)O; 2Pal = N[C@@H](Cc1ccccn1)C(=O)O; 3Pal = N[C@@H](Cc1cccnc1)C(=O)O; 4Pal = N[C@@H](Cc1ccncc1)C(=O)O; Aad = N[C@@H](CCCC(=O)O)C(=O)O; NHCH(CH2OH)2 = OCC(CO)N*; Orn = NCCC[C@H](N)C(=O)O; Dab = NCC[C@H](N)C(=O)O; NHCH2CH2OH = OCCN*; NHiBu = CC(C)CN*; X4 = OCCOCCN*; NHOH = ON*

Biological target: T1, human oxytocin (hOT) receptor (Homo sapiens, UniProt P30559)
T1 construct: expressed in transfected cells
T1 sequence (P30559 1-389): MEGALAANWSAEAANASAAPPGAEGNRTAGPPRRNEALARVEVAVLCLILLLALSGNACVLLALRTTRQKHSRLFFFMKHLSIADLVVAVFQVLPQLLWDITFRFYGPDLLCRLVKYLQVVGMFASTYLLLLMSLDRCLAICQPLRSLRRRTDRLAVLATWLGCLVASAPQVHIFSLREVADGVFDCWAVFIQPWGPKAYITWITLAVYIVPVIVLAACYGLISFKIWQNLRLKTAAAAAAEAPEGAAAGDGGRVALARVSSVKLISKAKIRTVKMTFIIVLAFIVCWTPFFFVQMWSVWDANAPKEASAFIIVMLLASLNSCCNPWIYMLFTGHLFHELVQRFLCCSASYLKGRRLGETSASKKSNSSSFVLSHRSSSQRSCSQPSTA
Assay: luciferase-based transcriptional reporter assay expressing the human oxytocin (hOT) receptor, for selectivity
Format: cell-based
Procedure: Agonist activity of compounds on the hV1a receptor was determined in a transcriptional reporter assay by transiently transfecting a hV1a receptor expression DNA into HEK-293 cells in concert with a reporter DNA containing intracellular calcium responsive promoter elements regulating expression of firefly luciferase. See Boss, V., Talpade, D. J., Murphy, T. J. J. Biol. Chem. 1996, May 3; 271(18), 10429-10432 for further guidance on this assay. […] To determine selectivity, compounds were tested in luciferase-based transcriptional reporter assays expressing the human oxytocin (hOT) receptor. Assays for other receptors (hV2, hV1b, rat V1a and rat V2) were also conducted.
The EC50 value given is the geometric mean expressed in nanomol/L (nM). Selectivity values are given as EC50 ratios.

[1] = agonist efficacy at the hOT receptor compared to AVP, ratio not determined

SMILES	selectivity hOT/hV1a (class symbol)	selectivity hOT/hV1a (class symbol) [1]
CC[C@H](C)[C@@H]1NC(=O)[C@H](Cc2ccccc2)NC(=O)[C@@H](N)CSSC[C@@H](C(=O)N2CCC[C@H]2C(=O)N[C@@H](CCCN)C(=O)NCC(N)=O)NC(=O)[C@H](CC(N)=O)NC(=O)[C@H](CCCC(N)=O)NC1=O [Compound 9] (H-CFI[Aad](NH2)NCP[Orn]G-NH2; disulfide 1-6)	+ (key: +: selective hV1a receptor agonist; EC50 hOT/hV1a ratio not determined due to very low agonist efficacy (<30% compared to AVP) at the hOT receptor)	
CC[C@H](C)[C@@H]1NC(=O)[C@H](Cc2ccccc2)NC(=O)[C@@H](N)CSSC[C@@H](C(=O)N2CCC[C@H]2C(=O)N[C@@H](CCN)C(=O)NCC(N)=O)NC(=O)[C@H](CC(N)=O)NC(=O)[C@H](CCCC(N)=O)NC1=O [Compound 11] (H-CFI[Aad](NH2)NCP[Dab]G-NH2; disulfide 1-6)	+ (key: +: selective hV1a receptor agonist; EC50 hOT/hV1a ratio not determined due to very low agonist efficacy (<30% compared to AVP) at the hOT receptor)	
CC[C@H](C)[C@@H]1NC(=O)[C@H](Cc2ccncc2)NC(=O)[C@@H](N)CSSC[C@@H](C(=O)N2CCC[C@H]2C(=O)N[C@@H](CCN)C(=O)NCC(N)=O)NC(=O)[C@H](CC(N)=O)NC(=O)[C@H](CCC(N)=O)NC1=O [Compound 12] (H-C[4Pal]IQNCP[Dab]G-NH2; disulfide 1-6)	+ (key: +: selective hV1a receptor agonist; EC50 hOT/hV1a ratio not determined due to very low agonist efficacy (<30% compared to AVP) at the hOT receptor)	
CC[C@H](C)[C@@H]1NC(=O)[C@H](Cc2cscn2)NC(=O)[C@@H](N)CSSC[C@@H](C(=O)N2CCC[C@H]2C(=O)N[C@@H](CCN)C(=O)NCC(N)=O)NC(=O)[C@H](CC(N)=O)NC(=O)[C@H](CCC(N)=O)NC1=O [Compound 13] (H-C[Ala(4-thiazolyl)]IQNCP[Dab]G-NH2; disulfide 1-6; N-terminus and C-terminus assumed)		+ (selective hV1a receptor agonist; EC50 hOT/hV1a ratio not determined due to very low agonist efficacy (<30% compared to AVP) at the hOT receptor)
CC[C@H](C)[C@@H]1NC(=O)[C@H](Cc2ccccc2)NC(=O)[C@@H](N)CSSC[C@@H](C(=O)N2CCC[C@H]2C(=O)N[C@@H](CCCN)C(=O)NCC(N)=O)NC(=O)[C@H](CC(N)=O)NC(=O)[C@H](CCC(=O)NO)NC1=O [Compound 16] (H-CFIE(NHOH)NCP[Orn]G-NH2; disulfide 1-6; N-terminus and C-terminus assumed)		+ (selective hV1a receptor agonist; EC50 hOT/hV1a ratio not determined due to very low agonist efficacy (<30% compared to AVP) at the hOT receptor)
CC[C@H](C)[C@@H]1NC(=O)[C@H](Cc2ccccn2)NC(=O)[C@@H](N)CSSC[C@@H](C(=O)N2CCC[C@H]2C(=O)N[C@@H](CCN)C(=O)NCC(N)=O)NC(=O)[C@H](CC(N)=O)NC(=O)[C@H](CCC(N)=O)NC1=O [Compound 17] (H-C[2Pal]IQNCP[Dab]G-NH2; disulfide 1-6)	+ (key: +: selective hV1a receptor agonist; EC50 hOT/hV1a ratio not determined due to very low agonist efficacy (<30% compared to AVP) at the hOT receptor)	
CC[C@H](C)[C@@H]1NC(=O)[C@H](Cc2cccnc2)NC(=O)[C@@H](N)CSSC[C@@H](C(=O)N2CCC[C@H]2C(=O)N[C@@H](CCN)C(=O)NCC(N)=O)NC(=O)[C@H](CC(N)=O)NC(=O)[C@H](CCC(N)=O)NC1=O [Compound 18] (H-C[3Pal]IQNCP[Dab]G-NH2; disulfide 1-6; N-terminus and C-terminus assumed)		+ (selective hV1a receptor agonist; EC50 hOT/hV1a ratio not determined due to very low agonist efficacy (<30% compared to AVP) at the hOT receptor)
CC[C@H](C)[C@@H]1NC(=O)[C@H](Cc2ccccc2)NC(=O)[C@@H](N)CSSC[C@@H](C(=O)N2CCC[C@H]2C(=O)N[C@@H](CCCN)C(=O)NCC(N)=O)NC(=O)[C@H](CC(N)=O)NC(=O)[C@H](CCC(=O)NC)NC1=O [Compound 19] (H-CFIE(NHMe)NCP[Orn]G-NH2; disulfide 1-6; N-terminus and C-terminus assumed)		+ (selective hV1a receptor agonist; EC50 hOT/hV1a ratio not determined due to very low agonist efficacy (<30% compared to AVP) at the hOT receptor)
CCNC(=O)CC[C@@H]1NC(=O)[C@H]([C@@H](C)CC)NC(=O)[C@H](Cc2ccccc2)NC(=O)[C@@H](N)CSSC[C@@H](C(=O)N2CCC[C@H]2C(=O)N[C@@H](CCCN)C(=O)NCC(N)=O)NC(=O)[C@H](CC(N)=O)NC1=O [Compound 20] (H-CFIE(NHEt)NCP[Orn]G-NH2; disulfide 1-6; N-terminus and C-terminus assumed)		+ (selective hV1a receptor agonist; EC50 hOT/hV1a ratio not determined due to very low agonist efficacy (<30% compared to AVP) at the hOT receptor)
CC[C@H](C)[C@@H]1NC(=O)[C@H](Cc2ccccc2)NC(=O)[C@@H](N)CSSC[C@@H](C(=O)N2CCC[C@H]2C(=O)N[C@@H](CCCN)C(=O)NCC(N)=O)NC(=O)[C@H](CC(N)=O)NC(=O)[C@H](CCC(=O)NCC(C)C)NC1=O [Compound 21] (H-CFIE(NHiBu)NCP[Orn]G-NH2; disulfide 1-6; N-terminus and C-terminus assumed)		+ (selective hV1a receptor agonist; EC50 hOT/hV1a ratio not determined due to very low agonist efficacy (<30% compared to AVP) at the hOT receptor)
CC[C@H](C)[C@@H]1NC(=O)[C@H](Cc2ccccc2)NC(=O)[C@@H](N)CSSC[C@@H](C(=O)N2CCC[C@H]2C(=O)N[C@@H](CCNC(C)C)C(=O)NCC(N)=O)NC(=O)[C@H](CC(N)=O)NC(=O)[C@H](CCCC(N)=O)NC1=O [Compound 22] (H-CFI[Aad](NH2)NCP[Dab(iPr)]G-NH2; disulfide 1-6; N-terminus and C-terminus assumed)		+ (selective hV1a receptor agonist; EC50 hOT/hV1a ratio not determined due to very low agonist efficacy (<30% compared to AVP) at the hOT receptor)
CC[C@H](C)[C@@H]1NC(=O)[C@H](Cc2ccccc2)NC(=O)[C@@H](N)CSSC[C@@H](C(=O)N2CCC[C@H]2C(=O)N[C@@H](CCCN)C(=O)NCC(N)=O)NC(=O)[C@H](CC(N)=O)NC(=O)[C@H](CC(=O)NCCO)NC1=O [Compound 23] (H-CFID(NHCH2CH2OH)NCP[Orn]G-NH2; disulfide 1-6; N-terminus and C-terminus assumed)		+ (selective hV1a receptor agonist; EC50 hOT/hV1a ratio not determined due to very low agonist efficacy (<30% compared to AVP) at the hOT receptor)
CC[C@H](C)[C@@H]1NC(=O)[C@H](Cc2ccccc2)NC(=O)[C@@H](N)CSSC[C@@H](C(=O)N2CCC[C@H]2C(=O)N[C@@H](CCCN)C(=O)NCC(N)=O)NC(=O)[C@H](CC(N)=O)NC(=O)[C@H](CC(=O)NO)NC1=O [Compound 24] (H-CFID(NHOH)NCP[Orn]G-NH2; disulfide 1-6; N-terminus and C-terminus assumed)		+ (selective hV1a receptor agonist; EC50 hOT/hV1a ratio not determined due to very low agonist efficacy (<30% compared to AVP) at the hOT receptor)
CC[C@H](C)[C@@H]1NC(=O)[C@H](Cc2ccccc2)NC(=O)[C@@H](N)CSSC[C@@H](C(=O)N2CCC[C@H]2C(=O)N[C@@H](CCCN)C(=O)NCC(N)=O)NC(=O)[C@H](CC(N)=O)NC(=O)[C@H](CC(=O)NC(CO)CO)NC1=O [Compound 27] (H-CFID(NHCH(CH2OH)2)NCP[Orn]G-NH2; disulfide 1-6; N-terminus and C-terminus assumed)		+ (selective hV1a receptor agonist; EC50 hOT/hV1a ratio not determined due to very low agonist efficacy (<30% compared to AVP) at the hOT receptor)
CC[C@H](C)[C@@H]1NC(=O)[C@H](Cc2ccccc2)NC(=O)[C@@H](N)CSSC[C@@H](C(=O)N2CCC[C@H]2C(=O)N[C@@H](CCCN)C(=O)NCC(N)=O)NC(=O)[C@H](CC(N)=O)NC(=O)[C@H](CC(=O)NCCOCCO)NC1=O [Compound 29] (H-CFID(X4)NCP[Orn]G-NH2; disulfide 1-6; N-terminus and C-terminus assumed)		+ (selective hV1a receptor agonist; EC50 hOT/hV1a ratio not determined due to very low agonist efficacy (<30% compared to AVP) at the hOT receptor)
CC[C@H](C)[C@@H]1NC(=O)[C@H](Cc2ccccc2)NC(=O)[C@@H](N)CSSC[C@@H](C(=O)N2CCC[C@H]2C(=O)N[C@@H](CCCN)C(=O)NCC(N)=O)NC(=O)[C@H](CC(N)=O)NC(=O)[C@H](CC(N)=O)NC1=O [Compound 30] (H-CFINNCP[Orn]G-NH2; disulfide 1-6; N-terminus and C-terminus assumed)		+ (selective hV1a receptor agonist; EC50 hOT/hV1a ratio not determined due to very low agonist efficacy (<30% compared to AVP) at the hOT receptor)
